Measurements reported in PubChem BioAssay AID2060506 (Molecular Pharmacology Branch, DTP, NCI, 2025).

Test system: 598228-144-R-J1-PDC complex spheroid viability
Test: Anticancer human tumor 598228-144-R-J1-PDC patient-derived serous endometrial adenocarcinoma cell line growth inhibition [GQUAD]
Conditions: for IC50: curve of first compound; for viability, T/C: stronger effect = lower value
How it was run: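 Viability of tumor cells grown as complex spheroids with endothelial and stromal cells, exposed to drug combinations. Top concentration at or near clinical Cmax (else 10 microM), diluted in half-log increments.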

[1] = second compound 0.0316 µM, first compound 0.0316 µM
[2] = second compound 0.0316 µM, first compound 0.1 µM
[3] = second compound 0.0316 µM, first compound 0.316 µM
[4] = second compound 0.0316 µM, first compound 1 µM
[5] = second compound 0.0316 µM, first compound 3.16 µM
[6] = second compound 0.0316 µM, first compound 10 µM
[7] = second compound 0.1 µM, first compound 0.0316 µM
[8] = second compound 0.1 µM, first compound 0.1 µM
[9] = second compound 0.1 µM, first compound 0.316 µM
[10] = second compound 0.1 µM, first compound 1 µM
[11] = second compound 0.1 µM, first compound 3.16 µM
[12] = second compound 0.1 µM, first compound 10 µM
[13] = second compound 0.316 µM, first compound 0.0316 µM
[14] = second compound 0.316 µM, first compound 0.1 µM
[15] = second compound 0.316 µM, first compound 0.316 µM
[16] = second compound 0.316 µM, first compound 1 µM
[17] = second compound 0.316 µM, first compound 3.16 µM
[18] = second compound 0.316 µM, first compound 10 µM
[19] = second compound 1 µM, first compound 0.0316 µM
[20] = second compound 1 µM, first compound 0.1 µM
[21] = second compound 1 µM, first compound 0.316 µM
[22] = second compound 1 µM, first compound 1 µM
[23] = second compound 1 µM, first compound 3.16 µM
[24] = second compound 1 µM, first compound 10 µM
[25] = second compound 3.16 µM, first compound 0.0316 µM
[26] = second compound 3.16 µM, first compound 0.1 µM
[27] = second compound 3.16 µM, first compound 0.316 µM
[28] = second compound 3.16 µM, first compound 1 µM
[29] = second compound 3.16 µM, first compound 3.16 µM
[30] = second compound 3.16 µM, first compound 10 µM
[31] = second compound 10 µM, first compound 0.0316 µM
[32] = second compound 10 µM, first compound 0.1 µM
[33] = second compound 10 µM, first compound 0.316 µM
[34] = second compound 10 µM, first compound 1 µM
[35] = second compound 10 µM, first compound 3.16 µM
[36] = second compound 10 µM, first compound 10 µM
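Also: spheroids exposed to the agents for one week before reading.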
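For viability, T/C in this document: percent of vehicle DMSO control viability so 100% = untreated growth.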

O=C(c1cc(Cc2n[nH]c(=O)c3ccccc23)ccc1F)N1CCN(C(=O)C2CC2)CC1 + Cc1[nH]c2ccc(F)cc2c1-c1nc2c3cccnc3c3ncccc3c2[nH]1
IC50 (second compound 0.0316 µM): > 10000 nM | IC50 (second compound 0.1 µM): > 10000 nM | IC50 (second compound 0.316 µM): > 10000 nM | IC50 (second compound 1 µM): > 10000 nM | IC50 (second compound 3.16 µM): < 31.6 nM | IC50 (second compound 10 µM): > 10000 nM | viability, T/C [1]: 110% | viability, T/C [2]: 95.2% | viability, T/C [3]: 92.1% | viability, T/C [4]: 105% | viability, T/C [5]: 96.4% | viability, T/C [6]: 97.5% | viability, T/C [7]: 91.4% | viability, T/C [8]: 107% | viability, T/C [9]: 87.8% | viability, T/C [10]: 88.3% | viability, T/C [11]: 85.8% | viability, T/C [12]: 73.8% | viability, T/C [13]: 72.9% | viability, T/C [14]: 90.7% | viability, T/C [15]: 78% | viability, T/C [16]: 79% | viability, T/C [17]: 68.7% | viability, T/C [18]: 71% | viability, T/C [19]: 56.1% | viability, T/C [20]: 66.6% | viability, T/C [21]: 64.3% | viability, T/C [22]: 67.1% | viability, T/C [23]: 60.1% | viability, T/C [24]: 58.1% | viability, T/C [25]: 40.8% | viability, T/C [26]: 44.4% | viability, T/C [27]: 38.6% | viability, T/C [28]: 42% | viability, T/C [29]: 50.8% | viability, T/C [30]: 45.4% | viability, T/C [31]: 70.9% | viability, T/C [32]: 57.8% | viability, T/C [33]: 65.9% | viability, T/C [34]: 61.5% | viability, T/C [35]: 49.6% | viability, T/C [36]: 61.6%

C=CCn1c(=O)c2cnc(Nc3ccc(N4CCN(C)CC4)cc3)nc2n1-c1cccc(C(C)(C)O)n1 + CN(C)c1ccc(Nc2c3ccc(NC(=O)CCN4CCCC4)cc3nc3cc(NC(=O)CCN4CCCC4)ccc23)cc1
IC50 (second compound 0.0316 µM): 913 nM | IC50 (second compound 0.1 µM): 1410 nM | IC50 (second compound 0.316 µM): > 10000 nM | IC50 (second compound 1 µM): 2290 nM | IC50 (second compound 3.16 µM): 611 nM | IC50 (second compound 10 µM): 233 nM | viability, T/C [1]: 85.4% | viability, T/C [2]: 99.5% | viability, T/C [3]: 65% | viability, T/C [4]: 44.2% | viability, T/C [5]: 53.7% | viability, T/C [6]: 48.2% | viability, T/C [7]: 109% | viability, T/C [8]: 97% | viability, T/C [9]: 74.4% | viability, T/C [10]: 47% | viability, T/C [11]: 50.9% | viability, T/C [12]: 45.3% | viability, T/C [13]: 107% | viability, T/C [14]: 83.6% | viability, T/C [15]: 54% | viability, T/C [16]: 52.5% | viability, T/C [17]: 51.7% | viability, T/C [18]: 52% | viability, T/C [19]: 103% | viability, T/C [20]: 79.3% | viability, T/C [21]: 67.9% | viability, T/C [22]: 50.8% | viability, T/C [23]: 47.6% | viability, T/C [24]: 47.7% | viability, T/C [25]: 131% | viability, T/C [26]: 88.3% | viability, T/C [27]: 63.3% | viability, T/C [28]: 32.1% | viability, T/C [29]: 46.1% | viability, T/C [30]: 21.9% | viability, T/C [31]: 88.6% | viability, T/C [32]: 72.8% | viability, T/C [33]: 39.8% | viability, T/C [34]: 21.7% | viability, T/C [35]: 8.8% | viability, T/C [36]: 4.75%

CC[C@@]1(O)C(=O)OCc2c1cc1n(c2=O)Cc2cc3c(CN(C)C)c(O)ccc3nc2-1 + Cc1[nH]c2ccc(F)cc2c1-c1nc2c3cccnc3c3ncccc3c2[nH]1
IC50 (second compound 0.0316 µM): > 316 nM | IC50 (second compound 0.1 µM): > 316 nM | IC50 (second compound 0.316 µM): > 316 nM | IC50 (second compound 1 µM): 22.9 nM | IC50 (second compound 3.16 µM): < 0.999 nM | IC50 (second compound 10 µM): 31 nM | viability, T/C (second compound 0.0316 µM, first compound 0.000999 µM): 106% | viability, T/C (second compound 0.0316 µM, first compound 0.00316 µM): 105% | viability, T/C (second compound 0.0316 µM, first compound 0.00999 µM): 93.5% | viability, T/C [1]: 90.7% | viability, T/C (second compound 0.0316 µM, first compound 0.0999 µM): 63.1% | viability, T/C [3]: 71.5% | viability, T/C (second compound 0.1 µM, first compound 0.000999 µM): 104% | viability, T/C (second compound 0.1 µM, first compound 0.00316 µM): 95.4% | viability, T/C (second compound 0.1 µM, first compound 0.00999 µM): 84.4% | viability, T/C [7]: 88.7% | viability, T/C (second compound 0.1 µM, first compound 0.0999 µM): 58% | viability, T/C [9]: 62.3% | viability, T/C (second compound 0.316 µM, first compound 0.000999 µM): 86.8% | viability, T/C (second compound 0.316 µM, first compound 0.00316 µM): 83.7% | viability, T/C (second compound 0.316 µM, first compound 0.00999 µM): 61.9% | viability, T/C [13]: 64.6% | viability, T/C (second compound 0.316 µM, first compound 0.0999 µM): 75% | viability, T/C [15]: 52.3% | viability, T/C (second compound 1 µM, first compound 0.000999 µM): 64.6% | viability, T/C (second compound 1 µM, first compound 0.00316 µM): 76.8% | viability, T/C (second compound 1 µM, first compound 0.00999 µM): 59.3% | viability, T/C [19]: 44.7% | viability, T/C (second compound 1 µM, first compound 0.0999 µM): 53.4% | viability, T/C [21]: 41.2% | viability, T/C (second compound 3.16 µM, first compound 0.000999 µM): 39.1% | viability, T/C (second compound 3.16 µM, first compound 0.00316 µM): 57.1% | viability, T/C (second compound 3.16 µM, first compound 0.00999 µM): 39.9% | viability, T/C [25]: 35.7% | viability, T/C (second compound 3.16 µM, first compound 0.0999 µM): 33.6% | viability, T/C [27]: 31.4% | viability, T/C (second compound 10 µM, first compound 0.000999 µM): 71.6% | viability, T/C (second compound 10 µM, first compound 0.00316 µM): 58.9% | viability, T/C (second compound 10 µM, first compound 0.00999 µM): 63.3% | viability, T/C [31]: 41.5% | viability, T/C (second compound 10 µM, first compound 0.0999 µM): 50.1% | viability, T/C [33]: 34.7%

CC(C)n1c(=O)n(C)c2cnc3cc(F)c(-c4ccc(OCCCN5CCCCC5)nc4)cc3c21 + Cc1cnc(CNC(=O)c2c(=O)c3ccc(N4CCCN(C)CC4)nc3n3c2sc2ccccc23)cn1
IC50 (second compound 0.0316 µM): 8280 nM | IC50 (second compound 0.1 µM): 793 nM | IC50 (second compound 0.316 µM): 3550 nM | IC50 (second compound 1 µM): 2620 nM | IC50 (second compound 3.16 µM): < 31.6 nM | IC50 (second compound 10 µM): < 31.6 nM | viability, T/C [1]: 58.2% | viability, T/C [2]: 78.2% | viability, T/C [3]: 77.8% | viability, T/C [4]: 63.1% | viability, T/C [5]: 62.8% | viability, T/C [6]: 47.5% | viability, T/C [7]: 70.2% | viability, T/C [8]: 57.9% | viability, T/C [9]: 53.4% | viability, T/C [10]: 44.3% | viability, T/C [11]: 61.3% | viability, T/C [12]: 36.8% | viability, T/C [13]: 52.1% | viability, T/C [14]: 50.3% | viability, T/C [15]: 55.1% | viability, T/C [16]: 48.8% | viability, T/C [17]: 52.1% | viability, T/C [18]: 36% | viability, T/C [19]: 53.2% | viability, T/C [20]: 59.2% | viability, T/C [21]: 59.6% | viability, T/C [22]: 56.5% | viability, T/C [23]: 47.5% | viability, T/C [24]: 28.1% | viability, T/C [25]: 50.4% | viability, T/C [26]: 46% | viability, T/C [27]: 48.3% | viability, T/C [28]: 50.5% | viability, T/C [29]: 38.1% | viability, T/C [30]: 3.5% | viability, T/C [31]: 40.7% | viability, T/C [32]: 36.6% | viability, T/C [33]: 39.1% | viability, T/C [34]: 29.9% | viability, T/C [35]: 25% | viability, T/C [36]: 0.34%
